Data: patent US6699686B1, “Modified nuclear glucocorticoid receptor, fusion protein, and DNA fragments coding for said receptor and said fusion protein” (Association pour le Development de la Recherche en …, priority 1996, dated 2004)

Target: T1, Cre-LBD[GR(I747/T)] (Homo sapiens, UniProt P04150, I747T)
T1 construct: the region containing the mutated LBD of HG1 [aa 500-777]; Cre recombinase aa 1-343 (bacteriophage P1); F region of the human estrogen receptor (aa 553-595); expressed in transfected cells
T1 sequence (P04150 500-777 I747T): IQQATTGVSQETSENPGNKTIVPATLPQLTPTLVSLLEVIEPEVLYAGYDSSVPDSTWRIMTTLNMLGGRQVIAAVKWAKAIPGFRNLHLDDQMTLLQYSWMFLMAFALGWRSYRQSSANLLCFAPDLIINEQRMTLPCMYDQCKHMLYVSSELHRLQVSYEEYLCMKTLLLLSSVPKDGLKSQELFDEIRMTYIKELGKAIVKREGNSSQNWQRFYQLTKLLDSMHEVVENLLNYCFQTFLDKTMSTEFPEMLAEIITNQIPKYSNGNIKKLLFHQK
Assay: PCR test of excision between loxP sites after transient transfection of pCre-LBD[GR(I747/T)] in RXRα+/−(LNL) F9 cells
Assay type: cell-based
Details: ligand 10^−6 M, 72 hours, murine F9 RXRα+/−(LNL) cells
Procedure: [optionally cotransfected with 5 μg of the vector pRXRα^(LNL) for the HeLa cells] with the aid of an electroporator (Bio-Rad gene pulser), set at 200 V and 960 μF. The cells were then inoculated at 10^6 cells per 100 mm dish and treated, if necessary, with ligands.
The DNA amplifications were carried out using the “Polymerase Chain Reaction” (PCR) technique according to the protocol described by Chen and Evans (60). The primers used are: SB211 and PZ105, having respectively as nucleotide sequence 5′-[…]-3′ (SEQ ID NO: 10) and 5′-[…]-3′ (SEQ ID NO: 11). After denaturation for 8 min at 94° C., 2.5 units of Taq polymerase are added. The amplification is carried out by performing 35 cycles (30 sec. at 94° C., 30 sec. at 50° C.) followed by one cycle (30 sec. at 94° C., 30 sec. at 50° C., 5 min at 72° C.), the product of which is stored at 4° C.
The products of the reactions were separated on polyacrylamide (10%) or agarose (2.5%) gel. The DNA was visualized by UV followed by ethidium bromide staining, or by Southern blotting (42).
The products of the reaction were separated on acrylamide gel and stained with ethidium bromide.

SMILES: C[C@]12CCC(=O)C=C1CC[C@@H]1[C@@H]2[C@@H](O)C[C@@]2(C)[C@H]1CC[C@]2(O)C(=O)CO [Cortisol, cortisol]
- excision of sequences between loxP sites (191 bp PCR fragment of recombinant allele): no fragment of this size is observed
